Experimental data: patent publication US9695155B2, “Herbicidal substituted pyrimidinyloxy benzene compounds” (E. I. DU PONT DE NEMOURS AND COMPANY, priority 2013, dated 2017)

Assays:
velvetleaf [1] = experiment: Test A preemergence; type: in vivo, Abutilon theophrasti
Outline: (§1)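 Scoring: eye-based comparison with untreated controls, 0 for no effect through 100 for complete control, at about day 10. Treatments: directed soil spray preemergence; foliar spray postemergence on 2–10 cm plants at the one- to two-leaf stage. Medium: loam soil with sand.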

morningglory [2] = experiment: Test A preemergence; type: in vivo, Ipomoea spp.
Outline: as §1

johnsongrass = experiment: Test C postemergence; type: in vivo, Sorghum halepense; details: for Plant response rating (0 to 100), Johnsongrass: postemergence; for Plant response rating, Johnsongrass: Postemergence, scale 0 to 100 (0 no effect, 100 complete control)
Outline: (§2)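 Visual ratings on a 0–100 scale (100 = complete control) were made versus untreated controls after 13–15 greenhouse days. Chemicals in a surfactant-containing non-phytotoxic solvent were applied either preemergence to seeds in loam–sand soil or postemergence to 1- to 4-leaf plants 2–18 cm tall.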

blackgrass = experiment: Test C postemergence; type: in vivo, Alopecurus myosuroides; details: for Plant response rating (0 to 100), Blackgrass: postemergence; for Plant response rating, Blackgrass: Postemergence, scale 0 to 100 (0 no effect, 100 complete control)
Outline: as §2

soybean = experiment: Test C postemergence; type: in vivo, Glycine max; details: for Plant response rating (0 to 100), Soybean: postemergence; for Plant response rating, Soybean: Postemergence, scale 0 to 100 (0 no effect, 100 complete control)
Outline: as §2

wheat = experiment: Test A preemergence; type: in vivo, Triticum aestivum
Outline: as §1

kochia = experiment: Test C postemergence; type: in vivo, Kochia scoparia; details: for Plant response rating (0 to 100), Kochia: postemergence; for Plant response rating, Kochia: Postemergence, scale 0 to 100 (0 no effect, 100 complete control)
Outline: as §2

ragweed = experiment: Test C postemergence; type: in vivo, Ambrosia elatior; details: for Plant response rating (0 to 100), Ragweed: postemergence; for Plant response rating, Ragweed: Postemergence, scale 0 to 100 (0 no effect, 100 complete control)
Outline: as §2

velvetleaf [3] = experiment: Test A postemergence; type: in vivo, Abutilon theophrasti
Outline: as §1

waterhemp = experiment: Test C postemergence; type: in vivo, Amaranthus rudis; details: for Plant response rating (0 to 100), Waterhemp: postemergence; for Plant response rating, Waterhemp: Postemergence, scale 0 to 100 (0 no effect, 100 complete control)
Outline: as §2

velvetleaf [4] = experiment: Test C postemergence; type: in vivo, Abutilon theophrasti; details: for Plant response rating (0 to 100), Velvetleaf: postemergence; for Plant response rating, Velvetleaf: Postemergence, scale 0 to 100 (0 no effect, 100 complete control)
Outline: as §2

galium = experiment: Test C postemergence; type: in vivo, Galium aparine; details: for Plant response rating (0 to 100), Galium: postemergence; for Plant response rating, Galium: Postemergence, scale 0 to 100 (0 no effect, 100 complete control)
Outline: as §2

wheat, winter = experiment: Test C postemergence; type: in vivo, Triticum aestivum; details: for Plant response rating (0 to 100), Wheat: postemergence; for Plant response rating, Wheat: Postemergence, scale 0 to 100 (0 no effect, 100 complete control)
Outline: as §2

morningglory [5] = experiment: Test A postemergence; type: in vivo, Ipomoea spp.
Outline: as §1

corn = experiment: Test A postemergence; type: in vivo, Zea mays
Outline: as §1

giant foxtail = experiment: Test A preemergence; type: in vivo, Setaria faberii
Outline: as §1

oilseed rape = experiment: Test C postemergence; type: in vivo, Brassica napus; details: for Plant response rating (0 to 100), Oilseed Rape: postemergence; for Plant response rating, Oilseed Rape: Postemergence, scale 0 to 100 (0 no effect, 100 complete control)
Outline: as §2

pigweed = experiment: Test C postemergence; type: in vivo, Amaranthus retroflexus; details: for Plant response rating (0 to 100), Pigweed: postemergence; for Plant response rating, Pigweed: Postemergence, scale 0 to 100 (0 no effect, 100 complete control)
Outline: as §2

[6] = 125 g ai/ha, 0 to 100 scale where 0 is no effect and 100 is complete control
[7] = 500 g ai/ha, 0 to 100 scale, 0 no effect, 100 complete control, approx. 10 days
[8] = 500 g ai/ha, 0 to 100 scale, 0 no effect, 100 complete control

In the case of Fc1cnc(Oc2ccccc2-n2cc(C(F)(F)F)cn2)nc1 [Compound 47], the “Plant response rating, Velvetleaf” value (velvetleaf [1]; [6]) is reported as 100, the “Velvetleaf plant response rating” value (velvetleaf [1]; [7]) is reported as 100 and the “Plant response rating, Morningglory” value (morningglory [2]; [6]) is reported as 0. For the same compound, the “Morningglory plant response rating” value (morningglory [2]; [7]) was 100, the “Plant response rating (0 to 100), Johnsongrass” value (johnsongrass; 125 g ai/ha) was 5 and the “Plant response rating (0 to 100), Johnsongrass” value (johnsongrass; 250 g ai/ha) was 5. For the same compound, the “Plant response rating, Johnsongrass” value (johnsongrass; 31 g ai/ha, 13 to 15 days) was 0, the “Plant response rating, Johnsongrass” value (johnsongrass; 62 g ai/ha) was 5 and the “Plant response rating (0 to 100), Blackgrass” value (blackgrass; 125 g ai/ha) was 5. The “Plant response rating (0 to 100), Blackgrass” value (blackgrass; 250 g ai/ha) was 40, the “Plant response rating, Blackgrass” value (blackgrass; 31 g ai/ha, 13 to 15 days) was 0 and the “Plant response rating, Blackgrass” value (blackgrass; 62 g ai/ha) was 0. For the same compound, the “Plant response rating (0 to 100), Soybean” value (soybean; 125 g ai/ha) was 65, the “Plant response rating (0 to 100), Soybean” value (soybean; 250 g ai/ha) was 65 and the “Plant response rating, Soybean” value (soybean; 31 g ai/ha, 13 to 15 days) was 35. For the same compound, the “Plant response rating, Soybean” value (soybean; 62 g ai/ha) was 45, the “Plant response rating, Wheat” value (wheat; [6]) was 0 and the “Wheat plant response rating” value (wheat; [7]) was 40. For the same compound, the “Plant response rating (0 to 100), Kochia” value (kochia; 125 g ai/ha) was 25, the “Plant response rating (0 to 100), Kochia” value (kochia; 250 g ai/ha) was 60 and the “Plant response rating, Kochia” value (kochia; 31 g ai/ha, 13 to 15 days) was 5. The “Plant response rating, Kochia” value (kochia; 62 g ai/ha) was 10, the “Plant response rating (0 to 100), Ragweed” value (ragweed; 125 g ai/ha) was 50 and the “Plant response rating (0 to 100), Ragweed” value (ragweed; 250 g ai/ha) was 85. The “Plant response rating, Ragweed” value (ragweed; 31 g ai/ha, 13 to 15 days) was 20, the “Plant response rating, Ragweed” value (ragweed; 62 g ai/ha) was 50 and the “Plant response rating, Velvetleaf” value (velvetleaf [3]; [6]) was 100. The “Plant response rating, Velvetleaf” value (velvetleaf [3]; [8]) was 100, the “Plant response rating (0 to 100), Waterhemp” value (waterhemp; 125 g ai/ha) was 100 and the “Plant response rating (0 to 100), Waterhemp” value (waterhemp; 250 g ai/ha) was 100. The “Plant response rating, Waterhemp” value (waterhemp; 31 g ai/ha, 13 to 15 days) was 100, the “Plant response rating, Waterhemp” value (waterhemp; 62 g ai/ha) was 100 and the “Plant response rating (0 to 100), Velvetleaf” value (velvetleaf [4]; 125 g ai/ha) was 70. The “Plant response rating (0 to 100), Velvetleaf” value (velvetleaf [4]; 250 g ai/ha) was 100, the “Plant response rating, Velvetleaf” value (velvetleaf [4]; 31 g ai/ha, 13 to 15 days) was 45 and the “Plant response rating, Velvetleaf” value (velvetleaf [4]; 62 g ai/ha) was 50. The “Plant response rating (0 to 100), Galium” value (galium; 125 g ai/ha) was 55, the “Plant response rating (0 to 100), Galium” value (galium; 250 g ai/ha) was 65 and the “Plant response rating, Galium” value (galium; 31 g ai/ha, 13 to 15 days) was 35. The “Plant response rating, Galium” value (galium; 62 g ai/ha) was 50, the “Plant response rating (0 to 100), Wheat” value (wheat, winter; 125 g ai/ha) was 0 and the “Plant response rating (0 to 100), Wheat” value (wheat, winter; 250 g ai/ha) was 0. The “Plant response rating, Wheat” value (wheat, winter; 31 g ai/ha, 13 to 15 days) was 0, the “Plant response rating, Wheat” value (wheat, winter; 62 g ai/ha) was 0 and the “Plant response rating, Morningglory” value (morningglory [5]; [6]) was 80. The “Plant response rating, Morningglory” value (morningglory [5]; [8]) was 100, the “Plant response rating, Corn” value (corn; [6]) was 40 and the “Plant response rating, Corn” value (corn; [8]) was 90. For the same compound, the “Plant response rating, Foxtail, Giant” value (giant foxtail; [6]) was 100, the “Foxtail, Giant plant response rating” value (giant foxtail; [7]) was 100 and the “Plant response rating (0 to 100), Oilseed Rape” value (oilseed rape; 125 g ai/ha) was 55. For the same compound, the “Plant response rating (0 to 100), Oilseed Rape” value (oilseed rape; 250 g ai/ha) was 55, the “Plant response rating, Oilseed Rape” value (oilseed rape; 31 g ai/ha, 13 to 15 days) was 15 and the “Plant response rating, Oilseed Rape” value (oilseed rape; 62 g ai/ha) was 50. For the same compound, the “Plant response rating (0 to 100), Pigweed” value (pigweed; 125 g ai/ha) was 65, the “Plant response rating (0 to 100), Pigweed” value (pigweed; 250 g ai/ha) was 70 and the “Plant response rating, Pigweed” value (pigweed; 31 g ai/ha, 13 to 15 days) was 40. For the same compound, the “Plant response rating, Pigweed” value (pigweed; 62 g ai/ha) was 55.
